Results from PMC4639830, “Inhibition of DYRK1A and GSK3B induces human β-cell proliferation” (Nature Communications, 2015).
“Also recorded” adds a separate entry of the source.

What was measured:
[1] = tested on: β-cells from dissociated adult primary human islets; assay: Human β-cell proliferation assay, EdU incorporation, dissociated islets; assay type: cell-based; details: for human β-cell proliferation (EdU incorporation), in words: dispersed human islets; for effect of co-treatment on human β-cell proliferation induced by GNF4877: GNF4877 2 μM, FK506 12 nM to 1 μM
Experimental: (§1) Rat or human β-cell proliferation assays were performed using dissociated primary rat or human islets. Islets were treated with the indicated compounds in the presence of EdU for 4 days before fixing and staining. […] For intact islet assays, primary human islets were treated for 7 or 8 days (as indicated in the legend). Rat dissociated islets were cultured in RPMI medium containing 10% FBS and human dissociated islets were cultured in PIM-S media (Prodo laboratories) with 10% human […].

[2] = tested on: adult rat primary β-cells; assay: Rat β-cell proliferation assay, EdU incorporation, dissociated islets; assay type: cell-based; details: for rat β-cell proliferation (EdU incorporation), in words: dispersed rat islets; for β-cell proliferation in combination with GNF4877: sub-EC50 GNF4877, Figs 7a,d (human and rat β-cells); for primary rat β-cell proliferation, combination of Chiron99021 with TG003: 4 days
Experimental: as §1

Dyrk1a = molecular target: T1, Dyrk1a (Homo sapiens, UniProt Q13627); assay: Dyrk1a kinase activity, biochemical assay
T1 construct: purchased Ambit KINOMEscan

[3] = tested on: β-catenin nuclear localization in primary rat islets; assay: β-Catenin nuclear translocation; assay type: cell-based
Experimental: At the end of the treatment, cells were fixed with 4% paraformaldehyde, blocked and permeabilized, and stained by standard immunofluorescence techniques for β-catenin (Cell signaling, #9562L; dilution 1:500), NFATc1 (Santa Cruz, rabbit polyclonal, SC-7294; dilution 1:200) or NFAT3c (Santa Cruz, SC-8321; dilution 1:200) and nuclear DNA was stained with DAPI (Molecular Probes; dilution 1:1,000). EdU incorporation was measured by click reaction with AlexaFluor-647-azide (Invitrogen). Plates were imaged with confocal microscope and analysed by Metamorph (Molecular Devices).

Gsk3b = Gsk3b (Homo sapiens, UniProt P49841); assay: Gsk3b biochemical kinase assay
Gsk3b, sequence (P49841 whole entry, species assumed): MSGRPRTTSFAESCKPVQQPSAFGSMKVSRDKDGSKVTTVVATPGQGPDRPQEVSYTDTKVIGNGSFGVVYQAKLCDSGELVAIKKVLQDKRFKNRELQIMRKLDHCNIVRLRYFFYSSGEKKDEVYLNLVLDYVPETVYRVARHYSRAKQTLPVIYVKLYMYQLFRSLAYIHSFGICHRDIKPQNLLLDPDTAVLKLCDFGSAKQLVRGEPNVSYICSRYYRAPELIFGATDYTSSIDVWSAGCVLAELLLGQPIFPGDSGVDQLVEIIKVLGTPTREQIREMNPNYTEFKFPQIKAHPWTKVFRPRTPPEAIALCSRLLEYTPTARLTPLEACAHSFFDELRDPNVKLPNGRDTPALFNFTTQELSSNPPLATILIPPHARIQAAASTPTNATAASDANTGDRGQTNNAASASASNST

rat islet cells = assay: eFluor670 vital dye dilution (cell division); assay type: cell-based; details: 5 days treatment
Excerpt: The extent of proliferation of human islet cells was too low to be detected with this method, consistent with the lower level of EdU incorporation induced in human islets.

Molecule | human β-cell proliferation (EdU incorporation), in words [1] | rat β-cell proliferation (EdU incorporation), in words [2] | other results
O=C1Cc2c([nH]c3ccc(Br)cc23)-c2ncccc2N1 [1-Akp] | without any significant effects on human β-cell proliferation | significantly lower extent than GNF7156 and GNF4877 | 
Nc1ncnc2c1c(I)cn2[C@@H]1O[C@H](CO)[C@@H](O)[C@H]1O [5-IT] | induced β-cell proliferation | induced β-cell proliferation | 
COC(=O)C1=C(C)NC(C)=C([N+](=O)[O-])C1c1ccccc1C(F)(F)F (stereo not drawn) [Bay K8644] |  |  | β-cell proliferation in combination with GNF4877 [2]: showed additive activity with GNF4877
Cc1cnc(-c2cnc(NCCNc3ccc(C#N)cn3)nc2-c2ccc(Cl)cc2Cl)[nH]1 [Chiron99021] | without any significant effects on human β-cell proliferation | significantly lower extent than GNF7156 and GNF4877 | primary rat β-cell proliferation, combination of Chiron99021 with TG003 [2]: additive induction of primary rat β-cell proliferation
C=CC[C@@H]1/C=C(\C)C[C@H](C)C[C@H](OC)[C@H]2O[C@@](O)(C(=O)C(=O)N3CCCC[C@H]3C(=O)O[C@H](/C(C)=C/[C@@H]3CC[C@@H](O)[C@H](OC)C3)[C@H](C)[C@@H](O)CC1=O)[C@H](C)C[C@@H]2OC [FK506] |  |  | effect of co-treatment on human β-cell proliferation induced by GNF4877 [1]: reduced by co-treatment
Nc1ncc(-c2ccccc2)nc1C(=O)Nc1ccccc1N1CCC(C(=O)O)CC1 [GNF6324] | completely inactive | completely inactive; also recorded: did not induce EdU incorporation in rat β-cells | IC50 (Dyrk1a): > 50 µM; β-catenin nuclear translocation [3]: capable of inducing nuclear localization of β-catenin; potency on Gsk3b, in words (Gsk3b): retained similar potency to GNF7156 on Gsk3b; eFluor670 staining intensity relative to control (rat islet cells): nor cause a decrease in eFluor670 staining
[Cl-].[Li+] [LiCl] | without any significant effects on human β-cell proliferation | significantly lower extent than GNF7156 and GNF4877 | 
CCN1/C(=C/C(C)=O)Sc2ccc(OC)cc21 [TG003] | induced β-cell proliferation | induced β-cell proliferation | primary rat β-cell proliferation, combination of Chiron99021 with TG003 [2]: additive induction of primary rat β-cell proliferation
COc1ccc(Cl)cc1C(=O)NCCc1ccc(S(=O)(=O)NC(=O)NC2CCCCC2)cc1 [glibenclamide] |  |  | β-cell proliferation in combination with GNF4877 [2]: showed additive activity with GNF4877
COc1ccc2c(c1)[nH]c1c(C)nccc12 [harmine] | induced β-cell proliferation | induced β-cell proliferation | 
cyclosporin A [CsA] |  |  | effect of co-treatment on human β-cell proliferation induced by GNF4877 [1]: reduced by co-treatment
